{"source": "patent US10016439B2", "about": "“Fused imidazole compounds” (ONO PHARMACEUTICAL CO., LTD., priority 2014, dated 2018)", "key": {"[1]": {"biological_target": "T1, GABAA α5/β3/γ2 (Homo sapiens (Human), UniProt P18507+P31644)", "T1 sequence (P31644 32-462)": "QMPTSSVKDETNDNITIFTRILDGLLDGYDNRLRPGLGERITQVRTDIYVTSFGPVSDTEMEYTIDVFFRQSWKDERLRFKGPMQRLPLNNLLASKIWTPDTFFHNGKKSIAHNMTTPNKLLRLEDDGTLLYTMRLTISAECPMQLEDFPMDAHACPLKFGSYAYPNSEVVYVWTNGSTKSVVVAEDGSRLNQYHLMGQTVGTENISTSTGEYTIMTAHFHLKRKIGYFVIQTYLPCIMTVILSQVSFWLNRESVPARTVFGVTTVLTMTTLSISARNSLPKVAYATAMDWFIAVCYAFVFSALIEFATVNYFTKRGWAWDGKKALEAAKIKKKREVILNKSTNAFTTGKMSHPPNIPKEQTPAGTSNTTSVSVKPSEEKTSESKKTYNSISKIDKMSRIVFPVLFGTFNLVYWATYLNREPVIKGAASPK", "T1 sequence (P28472 26-473 partner)": "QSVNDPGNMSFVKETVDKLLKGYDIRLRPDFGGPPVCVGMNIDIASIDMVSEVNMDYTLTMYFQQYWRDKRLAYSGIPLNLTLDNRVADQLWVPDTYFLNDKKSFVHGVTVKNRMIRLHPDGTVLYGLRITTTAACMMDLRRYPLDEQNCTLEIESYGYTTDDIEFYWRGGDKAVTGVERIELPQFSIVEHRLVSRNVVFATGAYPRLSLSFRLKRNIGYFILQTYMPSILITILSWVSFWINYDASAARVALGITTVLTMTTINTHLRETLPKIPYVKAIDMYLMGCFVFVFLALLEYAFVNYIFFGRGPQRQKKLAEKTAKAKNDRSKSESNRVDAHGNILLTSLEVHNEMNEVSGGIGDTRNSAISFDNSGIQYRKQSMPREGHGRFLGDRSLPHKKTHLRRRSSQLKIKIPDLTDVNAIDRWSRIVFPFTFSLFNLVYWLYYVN", "T1 sequence (P18507 40-475)": "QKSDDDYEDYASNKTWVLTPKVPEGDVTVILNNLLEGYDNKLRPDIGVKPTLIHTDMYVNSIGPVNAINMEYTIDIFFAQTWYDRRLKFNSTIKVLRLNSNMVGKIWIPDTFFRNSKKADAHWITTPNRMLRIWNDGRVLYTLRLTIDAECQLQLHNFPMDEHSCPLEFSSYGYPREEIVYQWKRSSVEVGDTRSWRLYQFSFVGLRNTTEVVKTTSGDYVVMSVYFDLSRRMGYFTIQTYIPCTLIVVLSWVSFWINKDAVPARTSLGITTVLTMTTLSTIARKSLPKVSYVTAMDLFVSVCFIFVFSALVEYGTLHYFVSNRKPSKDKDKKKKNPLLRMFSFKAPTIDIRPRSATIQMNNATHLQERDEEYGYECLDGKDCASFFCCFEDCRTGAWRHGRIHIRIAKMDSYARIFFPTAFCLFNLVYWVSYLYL", "experiment": "Binding assay (Scintillation Proximity Assay, [3H]-Ro15-1788)", "conditions": "membranes of HEK293 cells expressing GABAA α5/β3/γ2", "method": "The GABAAα5/β3/γ2 protein used for the Scintillation Proximity Assay was derived from membranes produced from HEK293 GABAA α5/β3/γ2 expressing HEK293 cell line. HEK293 GABAA α5/β3/γ2 expressing HEK293 cell line was cultured, then harvested and centrifuged the cells. Membranes were produced by homogenization of the cell pellet with a tissue homogenizer. The resulting homogenate was centrifuged at 48,000 g for 30 minutes, re-suspended and washed twice with 10 mM potassium phosphate buffer, pH 7.4. Final resuspension of membranes took place in buffer containing 10 mM potassium phosphate and 100 mM KCl.\nFor assay, test compound (50×) was added 0.5 μl per well to a white-walled clear-bottomed 384-well plate.\nFull signal controls were prepared by the addition of 0.5 μl of DMSO to the appropriate wells. Mixture of 10 μl of protein and 10 μl of PVT-WGA beads (0.2 mg/well) were added to the plate. Both protein and bead were diluted to the desired concentration with 10 mM potassium phosphate, pH 7.4, containing 100 mM KCl. The plate was pre-incubated for 30 minutes at room temperature with shaking before initiation of the reaction by the addition of radioligand. 5 μl of [^3H]-Ro15-1788 was added at a concentration of 30 nM (5×) and the plates sealed. The reaction mix was incubated at room temperature overnight with gentle agitation on a plate shaker. The final DMSO concentration for all phases of the screening was 2% (v/v). At the end of the overnight incubation, the plates were centrifuged for two minutes at 1,000 rpm prior to reading on a Perkin Elmer Microbeta.\nConcentration-response testing was performed in duplicate and the percent effect calculated for each replicate data point. The raw data was entered in Activity Base and the curves were fitted to the mean data using Excel and XL Fit, and shown as Ki."}, "[2]": {"biological_target": "T1, GABAA α5/β3/γ2", "experiment": "Functional assay (PatchXpress automated patch-clamp), α5 subtype", "assay_type": "cell-based", "conditions": "% change of GABA EC20 response; compound 1 μM; HEK293 cells", "description": "(§1) GABAA α5/β3/γ2 HEK293 cell line was used throughout the functional assay in PatchXpress (Molecular Devices), the automated patch-clamp system. Cells stably expressing the appropriate GABAA subtype (α5/β3/γ2, α1/β3/γ2, α2/β3/γ2 or α3/β3/γ2) were dissociated from poly-D-lysine treated tissue culture flasks using a mixture of one part TrypLE (Invitrogen, cat #12604): one part Dulbecco's Phosphate Buffered Saline (Invitrogen, cat #14190). The dissociated cells were re-suspended in growth media (D-MEM/F-12 media (Invitrogen, cat #11320) supplemented with 10% (v/v) Foetal Bovine Serum (Invitrogen, cat #10082) and 1% (v/v) non-essential amino acids (Invitrogen, cat #11140)) and allowed to recover for one hour at 37° C. in a humidified incubator with 5% CO2. At the end of the recovery period cells were centrifuged at 1,000 rpm for two minutes and the resulting pellet re-suspended in external solution (in mM; 137 NaCl, 4 KCl, 10 HEPES, 1.8 CaCl2, 1 MgCl2, 10 glucose, pH set to 7.35 with NaOH). Cells were counted and diluted to 2.5×10^6/ml in external solution. The patch-clamp assay protocol involved determination of current amplitude with control applications of GABA EC20 containing concentration-matched DMSO (0.3% v/v), then pre-incubation of the test compound for one minute prior to the addition of the same compound diluted with the GABA EC20. Compound and/or GABA was applied for five seconds, with two minute wash periods between applications. No wash period was present at the end of the compound pre-application stage. The internal solution comprised (in mM) 90 KCl, 50 KF, 11 EGTA, 10 HEPES, 1 MgCl2, 2 Mg-ATP, the pH was set to 7.35 with KOH and the holding potential was −60 mV. Compounds were assayed at a concentration of 1 μM."}, "[3]": {"biological_target": "GABAA α1/β3/γ2 (Homo sapiens (Human), UniProt P14867+P18507)", "sequence (P14867 28-456)": "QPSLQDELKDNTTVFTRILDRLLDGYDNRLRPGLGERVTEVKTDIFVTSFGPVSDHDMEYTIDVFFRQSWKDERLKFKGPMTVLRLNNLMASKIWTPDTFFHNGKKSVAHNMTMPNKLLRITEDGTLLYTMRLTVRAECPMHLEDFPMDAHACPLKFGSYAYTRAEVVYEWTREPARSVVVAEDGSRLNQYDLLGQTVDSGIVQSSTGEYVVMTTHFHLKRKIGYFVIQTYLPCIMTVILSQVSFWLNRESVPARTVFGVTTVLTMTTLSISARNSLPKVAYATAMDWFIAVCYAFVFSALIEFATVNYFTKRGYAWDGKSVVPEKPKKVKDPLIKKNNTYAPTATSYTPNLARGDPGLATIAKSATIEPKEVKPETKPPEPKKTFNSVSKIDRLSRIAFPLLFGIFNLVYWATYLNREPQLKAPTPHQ", "sequence (P28472 26-473 partner)": "as the sequence (P28472 26-473 partner) above", "sequence (P18507 40-475)": "as the sequence (P18507 40-475) above", "experiment": "Functional assay (PatchXpress automated patch-clamp), α1 subtype", "assay_type": "cell-based", "conditions": "% change of GABA EC20 response; compound 1 μM; HEK293 cells", "description": "as §1"}, "[4]": {"test_system": "Lister Hooded rat", "experiment": "Rat Novel Object Recognition test", "assay_type": "in vivo", "conditions": "20 mg/kg p.o., 30 min prior to T1 and T2; 24 hr delay", "description": "NOR (Novel Object Recognition test) is a two-trial spontaneous test of visual recognition memory that relies on the animal's natural tendency to explore novelty (Behav Brain Res, 1998, 31(1): pp. 47-59). Variation of the inter-trial interval (ITI) between acquisition (T1) and retention trials (T2) may be used to investigate either deficits or improvements in memory. A temporal performance deficit can be induced by increasing the ITI (approximately 24 hr), such that exploration of both objects in T2 is similar, enabling the pro-cognitive abilities of novel compounds to be evaluated.\nMale, Lister Hooded rat (228-273 g at start of study; Harlan UK) was used.\nHabituation to the grey, matt perspex NOR box twice a day, on two consecutive days, prior to testing. Each habituation session, consisted of a 3 min exposure to the empty test box (46×30×45 cm), followed by 1 min in the side annex (13×30×45 cm), and then a further 3 min in the test area. […]\nExperimental protocol tests for improvement in attention/recognition memory via reversal of a 24 h delay-induced deficit in NOR. […] All performance measures were determined for each individual animal before statistical handling.\nThe T1 score, d1 and d2 index were analysed using 2-way ANOVA (treatment×object) followed by planned comparisons post-hoc LSD using single measure parametric analysis, based on least square (predicted) means in InVivoStat, UK."}}, "data": [{"smiles": "Cc1cc(Nc2cc3c(cc2Cl)N(C)C(=O)CO3)nc2c1ncn2CC1CC1", "note": "[Example 160, 6-Chloro-7-((3-(cyclopropylmethyl)-7-methyl-3H-imidazo[4,5-b]pyridin-5-yl)amino)-4-methyl-2H-benzo[b][1,4]oxazin-3(4H)-one]", "values": [{"measurement": "Ki", "setting": "[1]", "value": 0.9, "unit": "nM"}, {"measurement": "inhibition at 1 µM", "setting": "[2]", "value": 42.5, "unit": "%"}, {"measurement": "inhibition at 1 µM", "setting": "[3]", "value": 9.8, "unit": "%"}, {"measurement": "d2 index score (performance in NOR)", "setting": "[4]", "value": "significantly improved performance"}]}]}
